Drawing on ChEMBL document CHEMBL3991601, “The target landscape of clinical kinase drugs” (Science, 2017), this text covers Kd for 17 compounds.

Structures can show the parent of a compound that is named as a salt. Active and inactive are the calls of the source. For most assays here, no stated cut-off is given here; in the data, actives have a measured Kd and inactives only a lower limit.

For experiment [1], the target named is Dual specificity mitogen-activated protein kinase kinase 1 (Homo sapiens, UniProt Q02750).
The target of experiment [2] is DnaJ homolog subfamily A member 1 (Homo sapiens, UniProt P31689).
The target in experiment [3] is Serine/threonine-protein kinase 26 (Homo sapiens, UniProt Q9P289).
Experiment [4] addresses T1, Discoidin domain-containing receptor 2 (Homo sapiens, UniProt Q16832).
T1 sequence (Q16832 whole entry): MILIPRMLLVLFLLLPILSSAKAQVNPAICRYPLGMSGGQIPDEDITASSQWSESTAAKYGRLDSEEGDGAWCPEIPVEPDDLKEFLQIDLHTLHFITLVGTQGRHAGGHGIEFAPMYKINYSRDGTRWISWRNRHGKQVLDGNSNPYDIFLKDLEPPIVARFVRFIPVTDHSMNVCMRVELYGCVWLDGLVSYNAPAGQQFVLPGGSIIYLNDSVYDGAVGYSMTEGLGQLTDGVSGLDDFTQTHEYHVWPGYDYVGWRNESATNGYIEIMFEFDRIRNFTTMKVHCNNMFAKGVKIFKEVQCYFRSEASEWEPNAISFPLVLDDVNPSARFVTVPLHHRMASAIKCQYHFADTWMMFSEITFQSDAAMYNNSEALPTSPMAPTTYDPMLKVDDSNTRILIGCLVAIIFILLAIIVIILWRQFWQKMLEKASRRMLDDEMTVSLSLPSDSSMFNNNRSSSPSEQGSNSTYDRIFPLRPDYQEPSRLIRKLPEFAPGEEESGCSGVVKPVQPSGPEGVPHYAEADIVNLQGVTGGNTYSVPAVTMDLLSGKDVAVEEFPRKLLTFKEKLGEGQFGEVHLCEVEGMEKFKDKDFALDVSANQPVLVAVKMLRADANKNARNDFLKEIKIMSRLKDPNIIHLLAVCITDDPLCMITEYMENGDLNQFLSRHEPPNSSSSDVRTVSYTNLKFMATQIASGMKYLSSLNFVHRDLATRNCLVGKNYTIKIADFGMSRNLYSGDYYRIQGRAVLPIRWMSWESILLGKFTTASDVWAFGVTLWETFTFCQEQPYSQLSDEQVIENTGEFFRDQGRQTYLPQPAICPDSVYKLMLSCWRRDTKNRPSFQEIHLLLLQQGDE

For experiment [5], the target named is T2, Serine/threonine-protein kinase PLK4 (Homo sapiens, UniProt O00444).
T2 sequence (O00444 whole entry): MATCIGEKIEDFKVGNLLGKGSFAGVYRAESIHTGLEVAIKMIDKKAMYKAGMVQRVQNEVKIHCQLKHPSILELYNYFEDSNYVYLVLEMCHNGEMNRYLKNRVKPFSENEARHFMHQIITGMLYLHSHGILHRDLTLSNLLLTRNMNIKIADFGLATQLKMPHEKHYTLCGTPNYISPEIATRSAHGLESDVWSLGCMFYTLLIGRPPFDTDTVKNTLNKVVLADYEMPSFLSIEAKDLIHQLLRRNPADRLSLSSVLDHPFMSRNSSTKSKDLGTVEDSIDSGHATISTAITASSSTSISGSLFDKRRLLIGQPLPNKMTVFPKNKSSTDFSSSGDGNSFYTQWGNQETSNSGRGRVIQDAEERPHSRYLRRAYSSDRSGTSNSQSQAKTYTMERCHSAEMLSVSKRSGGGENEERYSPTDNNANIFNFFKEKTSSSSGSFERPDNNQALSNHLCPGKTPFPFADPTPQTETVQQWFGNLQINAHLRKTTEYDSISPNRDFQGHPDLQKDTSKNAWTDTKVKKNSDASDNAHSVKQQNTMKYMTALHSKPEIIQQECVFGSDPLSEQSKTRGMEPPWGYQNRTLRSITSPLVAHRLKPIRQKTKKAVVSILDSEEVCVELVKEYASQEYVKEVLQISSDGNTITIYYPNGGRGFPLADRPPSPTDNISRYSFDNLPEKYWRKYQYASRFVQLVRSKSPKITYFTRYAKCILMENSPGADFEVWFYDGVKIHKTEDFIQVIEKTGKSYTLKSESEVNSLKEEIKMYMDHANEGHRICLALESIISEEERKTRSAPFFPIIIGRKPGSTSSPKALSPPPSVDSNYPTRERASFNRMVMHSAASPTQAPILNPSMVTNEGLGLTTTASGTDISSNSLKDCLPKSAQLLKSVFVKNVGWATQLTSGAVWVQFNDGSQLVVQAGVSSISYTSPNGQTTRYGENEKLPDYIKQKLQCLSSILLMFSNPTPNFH

For experiment [6], the target named is T3, Phenylalanine--tRNA ligase beta subunit (Homo sapiens, UniProt Q9NSD9).
T3 sequence (Q9NSD9 whole entry): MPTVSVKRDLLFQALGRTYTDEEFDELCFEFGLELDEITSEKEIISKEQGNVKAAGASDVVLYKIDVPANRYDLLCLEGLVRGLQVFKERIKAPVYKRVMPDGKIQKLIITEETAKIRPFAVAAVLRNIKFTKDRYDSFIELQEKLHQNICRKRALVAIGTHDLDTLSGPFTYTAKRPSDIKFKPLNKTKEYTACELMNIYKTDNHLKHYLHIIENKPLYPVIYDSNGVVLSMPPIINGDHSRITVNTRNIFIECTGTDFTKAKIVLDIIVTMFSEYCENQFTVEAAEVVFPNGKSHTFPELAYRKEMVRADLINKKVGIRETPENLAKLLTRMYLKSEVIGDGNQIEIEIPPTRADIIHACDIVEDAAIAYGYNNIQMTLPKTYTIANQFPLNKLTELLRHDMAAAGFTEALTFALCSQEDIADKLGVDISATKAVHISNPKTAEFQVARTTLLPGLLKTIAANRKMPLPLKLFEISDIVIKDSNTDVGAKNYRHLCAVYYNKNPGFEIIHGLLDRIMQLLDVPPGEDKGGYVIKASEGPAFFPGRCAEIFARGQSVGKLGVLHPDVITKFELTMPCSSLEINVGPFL

Serine/threonine-protein kinase 26, sequence (Q9P289 whole entry, the tested form may be a part): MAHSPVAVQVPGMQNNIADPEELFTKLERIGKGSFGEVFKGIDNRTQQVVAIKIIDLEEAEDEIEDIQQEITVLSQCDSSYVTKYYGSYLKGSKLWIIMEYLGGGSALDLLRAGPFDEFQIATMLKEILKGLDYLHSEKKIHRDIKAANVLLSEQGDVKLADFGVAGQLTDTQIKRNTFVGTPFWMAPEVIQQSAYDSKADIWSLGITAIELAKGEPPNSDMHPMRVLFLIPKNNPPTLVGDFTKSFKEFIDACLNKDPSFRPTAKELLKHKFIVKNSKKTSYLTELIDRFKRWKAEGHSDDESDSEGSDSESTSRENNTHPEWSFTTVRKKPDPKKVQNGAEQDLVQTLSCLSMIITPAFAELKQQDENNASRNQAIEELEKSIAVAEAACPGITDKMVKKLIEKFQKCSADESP
Dual specificity mitogen-activated protein kinase kinase 1, sequence (Q02750 whole entry): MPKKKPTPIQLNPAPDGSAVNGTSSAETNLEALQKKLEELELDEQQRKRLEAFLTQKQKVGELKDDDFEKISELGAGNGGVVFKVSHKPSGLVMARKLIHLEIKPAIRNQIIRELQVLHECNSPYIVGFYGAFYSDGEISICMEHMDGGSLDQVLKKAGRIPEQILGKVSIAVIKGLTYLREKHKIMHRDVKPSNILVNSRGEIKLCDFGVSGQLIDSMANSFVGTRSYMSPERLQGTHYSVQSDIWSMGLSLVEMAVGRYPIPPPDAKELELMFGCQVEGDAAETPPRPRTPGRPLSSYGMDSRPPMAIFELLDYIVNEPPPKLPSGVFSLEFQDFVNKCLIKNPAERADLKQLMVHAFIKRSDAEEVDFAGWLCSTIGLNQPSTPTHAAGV
DnaJ homolog subfamily A member 1, sequence (P31689 whole entry): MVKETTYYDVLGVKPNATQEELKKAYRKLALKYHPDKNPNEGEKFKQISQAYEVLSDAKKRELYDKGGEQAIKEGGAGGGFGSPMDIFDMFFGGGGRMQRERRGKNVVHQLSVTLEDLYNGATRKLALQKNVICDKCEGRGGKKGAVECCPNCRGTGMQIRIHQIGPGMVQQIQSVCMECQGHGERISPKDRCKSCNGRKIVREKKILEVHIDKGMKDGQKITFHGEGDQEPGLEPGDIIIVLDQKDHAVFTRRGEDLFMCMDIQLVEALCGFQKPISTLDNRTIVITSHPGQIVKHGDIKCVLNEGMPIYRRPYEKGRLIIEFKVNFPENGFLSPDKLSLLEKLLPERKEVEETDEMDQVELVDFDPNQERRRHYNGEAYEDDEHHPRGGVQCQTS

For the compound `Cc1cc(Nc2ncc(Cl)c(Nc3ccccc3S(=O)(=O)C(C)C)n2)c(OC(C)C)cc1C1CCNCC1` [CERITINIB], the Kd in experiment [1] was > 30 µM (inactive); in experiment [2], > 30 µM (inactive); in experiment [3], > 30 µM (inactive); in experiment [4], > 30 µM (inactive); in experiment [5] it was 7.1 µM (active); in experiment [6] it was > 30 µM (inactive).
`COc1c(OCCCN2CCOCC2)ccc2c1N=C(NC(=O)c1cnc(N)nc1)N1CCN=C21` [COPANLISIB]: the Kd in experiment [1], in experiment [2], in experiment [3], in experiment [4], in experiment [5] and in experiment [6] was > 30 µM (inactive) each time.
Consider `COCC(=O)NC/C=C/c1ccc2ncnc(Nc3ccc(Oc4ccc(C)nc4)c(C)c3)c2c1` [CP-724714], for which the Kd in experiment [1], in experiment [2], in experiment [3], in experiment [4], in experiment [5] and in experiment [6] was > 30 µM (inactive) each time.
As to `C#Cc1cccc(Nc2ncnc3cc(OC)c(OCCCCCCC(=O)NO)cc23)c1` [CUDC-101], the Kd in experiment [1], in experiment [2], in experiment [3], in experiment [4], in experiment [5] and in experiment [6] was > 30 µM (inactive) in each case.
On to `CCS(=O)(=O)N1CCN(c2ccc(Nc3ncc(C(N)=O)c(NC4CC4)n3)cc2)CC1` [Cerdulatinib Hydrochloride], for which the Kd was > 30 µM (inactive) in experiment [1]; > 30 µM (inactive) in experiment [2]; 0.029 µM in experiment [3]; > 30 µM (inactive) in experiment [4]; > 30 µM (inactive) in experiment [5]; > 30 µM (inactive) in experiment [6].
As to `CC(C)(C)c1nc(-c2cccc(NS(=O)(=O)c3c(F)cccc3F)c2F)c(-c2ccnc(N)n2)s1` [DABRAFENIB], the Kd is > 30 µM (inactive) in experiment [1]; > 30 µM (inactive) in experiment [2]; > 30 µM (inactive) in experiment [3]; > 30 µM (inactive) in experiment [4]; 0.52 µM (active) in experiment [5]; > 30 µM (inactive) in experiment [6].
Turning to `Cc1nc2cc(-n3ncc(C(=O)c4cc5ccccc5[nH]4)c3N)ccc2[nH]1` [FGFR INHIBITOR DEBIO 1347], the Kd in experiment [1], in experiment [2], in experiment [3], in experiment [4], in experiment [5] and in experiment [6] was > 30 µM (inactive) in each case.
Take `O=C(Nc1nc2cccc(-c3ccc(CN4CCS(=O)(=O)CC4)cc3)n2n1)C1CC1` [FILGOTINIB]: the Kd in experiment [1], in experiment [2], in experiment [3], in experiment [4], in experiment [5] and in experiment [6] was > 30 µM (inactive) in each case.
For the compound `Cc1cccc(-c2nn3c(c2-c2ccnc4ccc(C(N)=O)cc24)CCC3)n1` [GALUNISERTIB], the Kd in experiment [1], in experiment [2], in experiment [3], in experiment [4], in experiment [5] and in experiment [6] was > 30 µM (inactive) each time.
With `COc1ccc(S(=O)(=O)N(C(C)=O)c2ccccc2/C=C/c2cc[n+]([O-])cc2)cc1` [HMN-214], the Kd in experiment [1], in experiment [2], in experiment [3], in experiment [4], in experiment [5] and in experiment [6] was > 30 µM (inactive) in each case.
As to `O=C(Nc1cc(C(F)(F)F)cc(C(F)(F)F)c1)c1cc(Cl)ccc1O` [IMD-0354], the Kd in experiment [1], in experiment [2], in experiment [3], in experiment [4], in experiment [5] and in experiment [6] was > 30 µM (inactive) each time.
With `CNC(=O)c1cccc2cc(Oc3ccnc4cc(OCC5(N)CC5)c(OC)cc34)ccc12` [LUCITANIB], the Kd was > 30 µM (inactive) in experiment [1]; > 30 µM (inactive) in experiment [2]; > 30 µM (inactive) in experiment [3]; 0.094 µM (active) in experiment [4]; > 30 µM (inactive) in experiment [5]; > 30 µM (inactive) in experiment [6].
Take `CNC(=O)c1nn(C)c2c1C(C)(C)Cc1cnc(Nc3ccc(N4CCN(C)CC4)cc3)nc1-2` [MILCICLIB]: the Kd in experiment [1] was > 30 µM (inactive); in experiment [2], > 30 µM (inactive); in experiment [3], > 30 µM (inactive); in experiment [4], 4.29 µM (active); in experiment [5] it was > 30 µM (inactive); in experiment [6], > 30 µM (inactive).
Take `NC1(c2ccc(-c3nc4ccn5c(=O)[nH]nc5c4cc3-c3ccccc3)cc2)CCC1` [MK-2206]: the Kd in experiment [1], in experiment [2], in experiment [3], in experiment [4], in experiment [5] and in experiment [6] was > 30 µM (inactive) each time.
On to `CN(C[C@@H]1COCCO1)S(=O)(=O)Nc1ccc2ccc3ncc(-c4cnn(C)c4)cc3c(=O)c2c1` [MK-2461], for which the Kd in experiment [1], in experiment [2], in experiment [3], in experiment [4], in experiment [5] and in experiment [6] was > 30 µM (inactive) each time.
Regarding `Cn1cc(-c2cnc3ccc4ccc(CS(=O)(=O)NCc5ccccn5)cc4c(=O)c3c2)cn1` [MK-8033], the Kd in experiment [1], in experiment [2], in experiment [3], in experiment [4], in experiment [5] and in experiment [6] was > 30 µM (inactive) throughout.
For the compound `FC(F)(F)c1ccc(/C=C/c2nc(COc3ccc(CCCCn4ccnn4)cc3)co2)cc1` [MUBRITINIB], the Kd in experiment [1], in experiment [2], in experiment [3], in experiment [4], in experiment [5] and in experiment [6] was > 30 µM (inactive) each time.
